# Measured values: US10626438B2, “Fluorescent substrates for determining lysine modifying enzyme activity” (The Broad Institute, Inc., priority 2011, dated 2020)
# Target: HDAC1 (Homo sapiens, UniProt Q13547)
# Details: for T(½): Broad Substrate A; for mechanism of inhibition (on/off kinetics): progress curves monitored for 4 hours and reversibility by 100-fold dilution
# HDAC1, sequence (Q13547 whole entry): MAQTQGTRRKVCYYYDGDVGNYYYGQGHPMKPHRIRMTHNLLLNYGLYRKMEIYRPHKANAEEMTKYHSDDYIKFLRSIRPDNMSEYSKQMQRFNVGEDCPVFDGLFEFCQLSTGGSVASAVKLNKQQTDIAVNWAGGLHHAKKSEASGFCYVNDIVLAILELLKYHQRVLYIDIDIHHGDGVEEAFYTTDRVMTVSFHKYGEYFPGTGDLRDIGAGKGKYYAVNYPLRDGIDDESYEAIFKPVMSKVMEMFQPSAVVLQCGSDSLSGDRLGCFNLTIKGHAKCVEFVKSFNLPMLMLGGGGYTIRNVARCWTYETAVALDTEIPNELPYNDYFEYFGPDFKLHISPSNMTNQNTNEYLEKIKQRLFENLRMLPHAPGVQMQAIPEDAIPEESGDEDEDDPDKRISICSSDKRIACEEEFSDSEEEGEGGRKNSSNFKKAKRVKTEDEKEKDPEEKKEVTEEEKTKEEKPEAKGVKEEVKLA
Compound,T(½) [min],mechanism of inhibition (on/off kinetics)
CC(=O)Nc1ccc(C(=O)Nc2ccccc2N)cc1 [CI-994],74,slow on/slow off inhibitor
O=C(CCCCCCC(=O)Nc1ccccc1)NO [SAHA],<4,fast on/fast off inhibitor
